# Assay results: the supplement of paper PMC6045584
# ± gives the standard deviation of the averaged measurements.
# How the values were obtained:
# SUNITINIB = compound: CCN(CC)CCNC(=O)c1c(C)[nH]c(/C=C2\C(=O)Nc3ccc(F)cc32)c1C [SUNITINIB]; assay: surviving fraction relative to DMSO-only wells; higher = less growth inhibition; details: exposure time: 5 days
# Outline: (§1)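 Lines were retained only if, across three screens, replicate Pearson r was >0.7 and median Z' was >0.3. Viability was measured as CellTiter-Glo luminescence and reported as surviving fraction relative to the median of DMSO-only wells. Readings followed 10 minutes at room temperature, after log-phase tumour cells seeded at 250–500 per well in 384-well plates had been exposed, from 24 hours after seeding, continuously for five days to inhibitors at 0.5, 1, 5, 10, 50, 100, 500 and 1000 nM.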
# [1] = compound: O=C(NOCC1CC1)c1ccc(F)c(F)c1Nc1ccc(I)cc1Cl; assay: as above; details: exposure time: 5 days
# Outline: as §1
Test System,surviving fraction (SUNITINIB; 0.5 nM),surviving fraction (SUNITINIB; 1 nM),surviving fraction (SUNITINIB; 5 nM),surviving fraction (SUNITINIB; 10 nM),surviving fraction (SUNITINIB; 100 nM),surviving fraction (SUNITINIB; 500 nM),surviving fraction (SUNITINIB; 1000 nM),surviving fraction ([1]; 0.5 nM),surviving fraction ([1]; 1 nM),surviving fraction ([1]; 5 nM),surviving fraction ([1]; 10 nM),surviving fraction ([1]; 50 nM),surviving fraction ([1]; 100 nM),surviving fraction ([1]; 500 nM),surviving fraction ([1]; 1000 nM),surviving fraction (SUNITINIB; 50 nM)
SCC36 HEADNECK,0.754 ± 0.059,0.783 ± 0.11,0.8 ± 0.02,0.714 ± 0.078,0.872 ± 0.074,0.441 ± 0.047,0.222 ± 0.021,1.09 ± 0.037,1.15 ± 0.03,1.09 ± 0.035,1.18 ± 0.12,1.03 ± 0.042,0.956 ± 0.057,0.776 ± 0.082,0.78 ± 0.087,
SUM149 BREAST,0.797 ± 0.036,0.755 ± 0.016,0.884 ± 0.052,0.213 ± 0.016,0.756 ± 0.039,0.619 ± 0.017,0.176 ± 0.01,0.375 ± 0.011,1.04 ± 0.067,0.908 ± 0.059,0.912 ± 0.032,0.512 ± 0.024,0.755 ± 0.1,0.407 ± 0.031,0.277 ± 0.053,0.906 ± 0.061
CAL51 BREAST,0.886 ± 0.047,0.895 ± 0.012,0.94 ± 0.011,0.934 ± 0.053,1.01 ± 0.035,0.52 ± 0.031,0.202 ± 0.031,0.975 ± 0.021,1 ± 0.032,0.981 ± 0.055,0.993 ± 0.017,0.934 ± 0.058,0.944 ± 0.042,0.878 ± 0.032,0.8495 ± 0.0082,
HCC38 BREAST,0.845 ± 0.24,0.893 ± 0.22,0.966 ± 0.15,,1.18 ± 0.11,1.04 ± 0.22,0.76 ± 0.21,1.14 ± 0.17,1.11 ± 0.19,1.01 ± 0.11,1.14 ± 0.093,0.998 ± 0.2,1.03 ± 0.22,1.21 ± 0.29,1.07 ± 0.14,1.16 ± 0.1
JURKAT HAEMATOPOIETIC AND LYMPHOID TISSUE,1.03 ± 0.023,1 ± 0.015,1.009 ± 0.0064,1.01 ± 0.025,1.04 ± 0.012,0.677 ± 0.012,0.0883 ± 0.0087,1.03 ± 0.012,1.032 ± 0.0095,1.04 ± 0.016,1.02 ± 0.044,0.98 ± 0.011,1 ± 0.014,1.03 ± 0.013,0.994 ± 0.033,1.01 ± 0.026
HCC1954 BREAST,0.363 ± 0.098,0.365 ± 0.15,0.38 ± 0.16,0.434 ± 0.2,0.555 ± 0.052,0.616 ± 0.092,0.65 ± 0.0088,0.986 ± 0.081,1.13 ± 0.023,1.12 ± 0.027,1.05 ± 0.066,0.8718 ± 0.0032,0.805 ± 0.081,0.617 ± 0.041,0.566 ± 0.067,0.5 ± 0.045
MDAMB453 BREAST,0.982 ± 0.0066,,,1.03 ± 0.026,,0.986 ± 0.059,0.724 ± 0.047,0.958 ± 0.033,1.02 ± 0.062,1.02 ± 0.072,0.992 ± 0.046,1.03 ± 0.094,1.05 ± 0.028,1.02 ± 0.06,1.06 ± 0.03,1.022 ± 0.005
93VU HEADNECK,0.817 ± 0.07,0.819 ± 0.059,0.85 ± 0.03,0.823 ± 0.078,0.93 ± 0.057,0.261 ± 0.026,0.158 ± 0.025,0.859 ± 0.026,0.873 ± 0.089,0.979 ± 0.061,0.828 ± 0.051,0.785 ± 0.074,0.751 ± 0.037,0.417 ± 0.036,0.311 ± 0.097,1.11 ± 0.055
SUM159 BREAST,,0.9683 ± 0.0076,,0.927 ± 0.06,,0.839 ± 0.13,0.548 ± 0.11,1.06 ± 0.29,1.03 ± 0.12,1.11 ± 0.36,1.03 ± 0.24,0.84 ± 0.2,0.726 ± 0.1,0.518 ± 0.11,0.455 ± 0.023,0.914 ± 0.12
